In US20250230193A1, “CYCLIC COMPOUND HAVING SELECTIVE KRAS INHIBITORY EFFECT ON HRAS AND NRAS” (CHUGAI SEIYAKU KABUSHIKI KAISHA, priority 2022, published 2025):
*1 amine or outer side, *2 acyl side, *3 side chain or, on linkers, in order; H or OH if unused. Where a SMILES comes first, the peptide text is derived from it. Bridges are numbered along the chain shown (N, C = ends). [ ]: non-standard residue; d: D form. The star is where a group is joined. hPhe(3-Cl-4-CF3) = N[C@@H](CCc1ccc(C(F)(F)F)c(Cl)c1)C(=O)O; X18 = C=CCCN([C@@H](Cc1ccc(C(F)(F)F)cc1)C(=O)[*:2])[*:1]; NPrPhe(4-CF3) = CCCN[C@@H](Cc1ccc(C(F)(F)F)cc1)C(=O)O; X30 = CCN([C@H](C(=O)[*:2])C1CCCC1)[*:1]; NMeGly(cPent) = CN[C@H](C(=O)O)C1CCCC1; Hyp = O=C(O)[C@@H]1C[C@@H](O)CN1; NMeD = CN[C@@H](CC(=O)O)C(=O)O; NMeL = CN[C@@H](CC(C)C)C(=O)O; Morpholide = C1CN(*)CCO1; Ac5c = NC1(C(=O)O)CCCC1; Ac4c = NC1(C(=O)O)CCC1; NEtG = CCNCC(=O)O; Sar = CNCC(=O)O

Assays:
[1] = molecular target: GDP-bound NRAS wild-type protein (Homo sapiens, UniProt P01111); assay: Binding to NRAS by surface plasmon resonance (SPR), Single Cycle Kinetics; settings: SPR; for NRAS/KRAS (ratio of KD value with respect to NRAS to KD value with respect to KRAS) / NRAS/KRAS (ratio of KD value for NRAS to KD value for KRAS): GDP-bound NRAS wild-type vs GDP-bound KRAS wild-type
[2] = molecular target: GDP-bound HRAS wild-type protein (Homo sapiens, UniProt P01112); assay: Binding to HRAS by surface plasmon resonance (SPR), Single Cycle Kinetics; settings: SPR; for HRAS/KRAS (ratio of KD value with respect to HRAS to KD value with respect to KRAS) / HRAS/KRAS (ratio of KD value for HRAS to KD value for KRAS): GDP-bound HRAS wild-type vs GDP-bound KRAS wild-type
Sequence of GDP-bound HRAS wild-type protein (P01112 whole entry): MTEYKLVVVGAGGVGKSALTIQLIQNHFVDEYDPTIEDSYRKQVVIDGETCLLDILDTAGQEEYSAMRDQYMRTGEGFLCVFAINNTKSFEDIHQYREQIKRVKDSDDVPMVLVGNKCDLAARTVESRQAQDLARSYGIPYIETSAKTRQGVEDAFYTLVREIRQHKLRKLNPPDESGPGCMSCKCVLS

Sequence of GDP-bound NRAS wild-type protein (P01111 whole entry): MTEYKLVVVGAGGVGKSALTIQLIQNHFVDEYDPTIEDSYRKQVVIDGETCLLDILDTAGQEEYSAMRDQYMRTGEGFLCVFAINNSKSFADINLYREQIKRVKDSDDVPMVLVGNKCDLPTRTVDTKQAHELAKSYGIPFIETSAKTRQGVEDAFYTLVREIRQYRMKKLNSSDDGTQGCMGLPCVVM

**Q.** For `CCO[C@@H]1C[C@H]2C(=O)NC3(CC(C)(C)C3)C(=O)N(C)[C@@H](C(CC)CC)C(=O)N(C)[C@H](C(=O)N(C)C)CC(=O)N(C)[C@@H](CC3CC3)C(=O)N[C@@H]([C@@H](C)CC)C(=O)N(C)CC(=O)N(C)[C@H]3C/C=C\CCN(C3=O)[C@@H](Cc3ccc(C)cc3)C(=O)N(C)CC(=O)N[C@@H](CCc3ccc(C(F)(F)F)c(OC)c3)C(=O)N2C1` [PP2166], which “NRAS/KRAS (ratio of KD value with respect to NRAS to KD value with respect to KRAS)” value [1] is on record?
**A.** A (a compound having 10 or more and less than 20 is denoted as A)

**Q.** What about the “HRAS/KRAS (ratio of KD value with respect to HRAS to KD value with respect to KRAS)” value [2] of the same molecule?
**A.** A (a compound having 10 or more and less than 20 is denoted as A)

**Q.** Which results are given for `CCO[C@@H]1C[C@H]2C(=O)NC3(CCC3)C(=O)N(C)[C@@H](C3CCCC3)C(=O)N(C)[C@H](C(=O)N(C)C)CC(=O)N(C)[C@@H](CC)C(=O)N[C@@H]([C@@H](C)CC)C(=O)N(C)CC(=O)N(C)[C@H]3CCCCCN(C3=O)[C@@H](Cc3ccc(C(F)(F)F)cc3)C(=O)N(C)CC(=O)N[C@@H](CCc3ccc4sccc4c3)C(=O)N2C1` [PP0892]?
**A.** NRAS/KRAS (ratio of KD value with respect to NRAS to KD value with respect to KRAS) ([1]; KD ratio): B (a compound having 3 or more and less than 10 is denoted as B); HRAS/KRAS (ratio of KD value with respect to HRAS to KD value with respect to KRAS) ([2]; KD ratio): B (a compound having 3 or more and less than 10 is denoted as B)

**Q.** What does the source list for `C=CCCN1C(=O)CN(C)C(=O)CN(C)C(=O)[C@H]([C@@H](C)CC)NC(=O)[C@H](CC(C)C)N(C)C(=O)C[C@@H](C(=O)N2CCOCC2)N(C)C(=O)[C@H](C2CCCC2)N(C)C(=O)C2(CCCC2)NC(=O)[C@@H]2CCCN2C(=O)[C@H](CCc2ccc(C(F)(F)F)c(Cl)c2)NC(=O)CN(C)C(=O)[C@@H]1Cc1ccc(C(F)(F)F)cc1` [PP0129] ([NMeL]I[Sar][Sar][X18][Sar][hPhe(3-Cl-4-CF3)]P[Ac5c][NMeGly(cPent)][NMeD]-Morpholide; lactam N-11)?
**A.** NRAS/KRAS (ratio of KD for GDP-bound NRAS wild-type to KD for KRAS) ([1]; KD ratio NRAS/KRAS): B (a compound having 3 or more and less than 10 is denoted as B); HRAS/KRAS (ratio of KD for GDP-bound HRAS wild-type to KD for KRAS) ([2]; KD ratio HRAS/KRAS): C (A compound having a KD ratio of 0.1 or more and less than 3 is denoted as C)

**Q.** What does the source list for `CC[C@H](C)[C@@H]1NC(=O)[C@H](CCOC)N(C)C(=O)C[C@@H](C(=O)N(C)CC)N(C)C(=O)[C@H](C2CCCC2)N(C)C(=O)C2(CC(C)(C)C2)NC(=O)[C@@H]2C[C@H](C)CN2C(=O)[C@H](CCc2ccc(C(F)(F)F)c(OC)c2)NC(=O)CN(C)C(=O)[C@H](Cc2ccc(C(F)(F)F)cc2)N2CC/C=C\C[C@@H](C2=O)N(C)C(=O)CN(C)C1=O` [PP1999]?
**A.** NRAS/KRAS (ratio of KD value for NRAS to KD value for KRAS) ([1]; KD ratio): A (a compound having 10 or more and less than 20 is denoted as A); HRAS/KRAS (ratio of KD value for HRAS to KD value for KRAS) ([2]; KD ratio): B (a compound having 3 or more and less than 10 is denoted as B)

**Q.** What does the source list for `CCCN1C(=O)CN(C)C(=O)CN(CC)C(=O)[C@H]([C@@H](C)CC)NC(=O)[C@H](CC(C)C)N(C)C(=O)C[C@@H](C(=O)N2CCOCC2)N(C)C(=O)[C@H](C2CCCC2)N(C)C(=O)C2(CCCC2)NC(=O)[C@@H]2C[C@@H](OC)CN2C(=O)[C@H](CCc2ccc(C(F)(F)F)c(Cl)c2)NC(=O)CN(C)C(=O)[C@@H]1Cc1ccc(C(F)(F)F)cc1` [PP0296] ([NMeL]I[NEtG][Sar][NPrPhe(4-CF3)][Sar][hPhe(3-Cl-4-CF3)][Hyp](Me)[Ac5c][NMeGly(cPent)][NMeD]-Morpholide; lactam N-11)?
**A.** NRAS/KRAS (ratio of KD for GDP-bound NRAS wild-type to KD for KRAS) ([1]; KD ratio NRAS/KRAS): B (a compound having 3 or more and less than 10 is denoted as B); HRAS/KRAS (ratio of KD for GDP-bound HRAS wild-type to KD for KRAS) ([2]; KD ratio HRAS/KRAS): C (A compound having a KD ratio of 0.1 or more and less than 3 is denoted as C)

**Q.** Which results are given for `CCO[C@@H]1C[C@H]2C(=O)NC3(CCC3)C(=O)N(C)[C@@H](C3CCCC3)C(=O)N(C)[C@H](C(=O)N3CCOCC3)CC(=O)N(C)[C@@H](CCOC)C(=O)N[C@@H]([C@@H](C)CC)C(=O)N(C)CC(=O)N(C)[C@H]3CCCCCN(C3=O)[C@@H](Cc3ccc(C(F)(F)F)cc3)C(=O)N(C)CC(=O)N[C@@H](CCc3cc(F)c(C(F)(F)F)c(F)c3)C(=O)N2C1` [PP0690]?
**A.** NRAS/KRAS (ratio of KD value with respect to GDP-bound NRAS wild-type protein to KD value with respect to KRAS) ([1]; KD ratio NRAS/KRAS): B (a compound having 3 or more and less than 10 is denoted as B); HRAS/KRAS (ratio of KD value with respect to GDP-bound HRAS wild-type protein to KD value with respect to KRAS) ([2]; KD ratio HRAS/KRAS): B (a compound having 3 or more and less than 10 is denoted as B)

**Q.** `CCCN1C(=O)CN(C)C(=O)CN(C)C(=O)[C@H]([C@@H](C)CC)NC(=O)[C@H](CC(C)C)N(C)C(=O)C[C@@H](C(=O)N2CCOCC2)N(C)C(=O)[C@H](C2CCCC2)N(CC)C(=O)C2(CCC2)NC(=O)[C@@H]2CCCN2C(=O)[C@H](CCc2ccc(C(F)(F)F)c(Cl)c2)NC(=O)CN(C)C(=O)[C@@H]1Cc1ccc(C(F)(F)F)cc1` [PP1952] ([NMeL]I[Sar][Sar][NPrPhe(4-CF3)][Sar][hPhe(3-Cl-4-CF3)]P[Ac4c][X30][NMeD]-Morpholide; lactam N-11) was tested. Which “NRAS/KRAS (ratio of KD value for NRAS to KD value for KRAS)” value ([1]; KD ratio) did it give?
**A.** B (a compound having 3 or more and less than 10 is denoted as B)

**Q.** And the “HRAS/KRAS (ratio of KD value for HRAS to KD value for KRAS)” value ([2]; KD ratio)?
**A.** B (a compound having 3 or more and less than 10 is denoted as B)
